Assay results: BindingDB's records for doi:10.1016/j.bioorg.2017.04.001 (China Pharmaceutical University, 2017)

Columns and labels:
[1] = biological target: Vascular endothelial growth factor receptor 2 (Homo sapiens, UniProt P35968); test: In Vitro c-Met and VEGFR-2 Enzyme Assay; details: pH 7.4; 37 °C
Procedure: (§1) Briefly, 20 μg/mL poly (Glu,Tyr) 4:1 (Sigma) was pre-coated in 96-well plates as a substrate. A 50 μL aliquot of 10 μmol/L ATP solution diluted in kinase reaction buffer (50 mmol/L HEPES [pH 7.4], 50 mmol/L MgCl2, 0.5 mmol/L MnCl2, 0.2 mmol/L Na3VO4, and 1 mmol/L DTT) was added to each well; 1 μL of various concentrations of indicated compounds diluted in 1% DMSO (v/v) (Sigma) was then added to each reaction well. DMSO (1%, v/v) was used as the negative control. The kinase reaction was initiated by the addition of purified tyrosine kinase proteins diluted in 49 μL of kinase reaction buffer. After incubation for 60 min at 37 °C, the plate was washed three times with phosphate-buffered saline (PBS) containing 0.1% Tween 20 (T-PBS). Anti-phosphotyrosine (PY99) antibody was then added. After a 30-min incubation at 37 °C, the plate was washed three times, and horseradishperoxidase-conjugated goat anti-mouse IgG was added. The plate was then incubated at 37 °C for 30 min and washed 3 times. A 100 μL aliquot of a solution containing 0.03% H2O2 and 2 mg/ml ophenylenediamine in 0.1 mol/L citrate buffer (pH 5.5) was added. The reaction was terminated by the addition of 50 μL of 2 mol/L H2SO4 as the color changed, and the plate was analyzed using a multi-well spectrophotometer (SpectraMAX 190, Molecular Devices) at 490 nm.

[2] = biological target: Hepatocyte growth factor receptor (Homo sapiens, UniProt P08581); test: In Vitro c-Met and VEGFR-2 Enzyme Assay; details: pH 7.4; 37 °C
Procedure: as §1

Hepatocyte growth factor receptor, sequence (P08581 whole entry): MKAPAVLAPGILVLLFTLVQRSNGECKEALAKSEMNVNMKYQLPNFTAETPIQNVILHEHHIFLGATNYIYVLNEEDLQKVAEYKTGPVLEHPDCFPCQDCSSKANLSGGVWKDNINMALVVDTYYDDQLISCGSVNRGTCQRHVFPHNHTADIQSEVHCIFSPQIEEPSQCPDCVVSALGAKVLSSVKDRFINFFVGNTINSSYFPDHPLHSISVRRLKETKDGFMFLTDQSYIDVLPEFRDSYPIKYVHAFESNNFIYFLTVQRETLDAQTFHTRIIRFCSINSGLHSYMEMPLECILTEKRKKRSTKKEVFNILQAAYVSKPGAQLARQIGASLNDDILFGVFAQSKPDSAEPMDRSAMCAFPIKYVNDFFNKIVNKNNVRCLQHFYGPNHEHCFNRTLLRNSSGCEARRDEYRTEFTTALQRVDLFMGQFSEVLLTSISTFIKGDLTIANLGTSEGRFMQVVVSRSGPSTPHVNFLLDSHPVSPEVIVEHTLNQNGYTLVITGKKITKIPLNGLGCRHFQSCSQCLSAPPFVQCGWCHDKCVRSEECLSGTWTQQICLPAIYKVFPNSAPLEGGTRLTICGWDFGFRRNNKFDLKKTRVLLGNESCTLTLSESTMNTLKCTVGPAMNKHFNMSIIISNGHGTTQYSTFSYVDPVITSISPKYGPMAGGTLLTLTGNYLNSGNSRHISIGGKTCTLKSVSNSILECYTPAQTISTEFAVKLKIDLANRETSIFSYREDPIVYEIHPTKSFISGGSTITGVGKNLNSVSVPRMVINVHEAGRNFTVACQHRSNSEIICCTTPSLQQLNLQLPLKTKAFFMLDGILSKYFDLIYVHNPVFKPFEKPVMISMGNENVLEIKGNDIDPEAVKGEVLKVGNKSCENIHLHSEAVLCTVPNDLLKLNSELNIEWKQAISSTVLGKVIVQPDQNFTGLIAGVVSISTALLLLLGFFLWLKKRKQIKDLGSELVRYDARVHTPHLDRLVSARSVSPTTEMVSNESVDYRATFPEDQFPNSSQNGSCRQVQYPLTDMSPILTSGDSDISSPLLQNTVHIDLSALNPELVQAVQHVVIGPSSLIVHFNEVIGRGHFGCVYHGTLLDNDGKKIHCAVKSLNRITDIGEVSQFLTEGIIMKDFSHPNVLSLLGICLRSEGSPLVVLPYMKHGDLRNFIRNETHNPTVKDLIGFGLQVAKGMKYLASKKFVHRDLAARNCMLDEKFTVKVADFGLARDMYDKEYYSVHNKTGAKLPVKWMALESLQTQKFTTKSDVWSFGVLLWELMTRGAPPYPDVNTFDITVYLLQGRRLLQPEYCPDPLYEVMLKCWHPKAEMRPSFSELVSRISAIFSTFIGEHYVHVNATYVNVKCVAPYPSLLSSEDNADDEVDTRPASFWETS
Vascular endothelial growth factor receptor 2, sequence (P35968 whole entry): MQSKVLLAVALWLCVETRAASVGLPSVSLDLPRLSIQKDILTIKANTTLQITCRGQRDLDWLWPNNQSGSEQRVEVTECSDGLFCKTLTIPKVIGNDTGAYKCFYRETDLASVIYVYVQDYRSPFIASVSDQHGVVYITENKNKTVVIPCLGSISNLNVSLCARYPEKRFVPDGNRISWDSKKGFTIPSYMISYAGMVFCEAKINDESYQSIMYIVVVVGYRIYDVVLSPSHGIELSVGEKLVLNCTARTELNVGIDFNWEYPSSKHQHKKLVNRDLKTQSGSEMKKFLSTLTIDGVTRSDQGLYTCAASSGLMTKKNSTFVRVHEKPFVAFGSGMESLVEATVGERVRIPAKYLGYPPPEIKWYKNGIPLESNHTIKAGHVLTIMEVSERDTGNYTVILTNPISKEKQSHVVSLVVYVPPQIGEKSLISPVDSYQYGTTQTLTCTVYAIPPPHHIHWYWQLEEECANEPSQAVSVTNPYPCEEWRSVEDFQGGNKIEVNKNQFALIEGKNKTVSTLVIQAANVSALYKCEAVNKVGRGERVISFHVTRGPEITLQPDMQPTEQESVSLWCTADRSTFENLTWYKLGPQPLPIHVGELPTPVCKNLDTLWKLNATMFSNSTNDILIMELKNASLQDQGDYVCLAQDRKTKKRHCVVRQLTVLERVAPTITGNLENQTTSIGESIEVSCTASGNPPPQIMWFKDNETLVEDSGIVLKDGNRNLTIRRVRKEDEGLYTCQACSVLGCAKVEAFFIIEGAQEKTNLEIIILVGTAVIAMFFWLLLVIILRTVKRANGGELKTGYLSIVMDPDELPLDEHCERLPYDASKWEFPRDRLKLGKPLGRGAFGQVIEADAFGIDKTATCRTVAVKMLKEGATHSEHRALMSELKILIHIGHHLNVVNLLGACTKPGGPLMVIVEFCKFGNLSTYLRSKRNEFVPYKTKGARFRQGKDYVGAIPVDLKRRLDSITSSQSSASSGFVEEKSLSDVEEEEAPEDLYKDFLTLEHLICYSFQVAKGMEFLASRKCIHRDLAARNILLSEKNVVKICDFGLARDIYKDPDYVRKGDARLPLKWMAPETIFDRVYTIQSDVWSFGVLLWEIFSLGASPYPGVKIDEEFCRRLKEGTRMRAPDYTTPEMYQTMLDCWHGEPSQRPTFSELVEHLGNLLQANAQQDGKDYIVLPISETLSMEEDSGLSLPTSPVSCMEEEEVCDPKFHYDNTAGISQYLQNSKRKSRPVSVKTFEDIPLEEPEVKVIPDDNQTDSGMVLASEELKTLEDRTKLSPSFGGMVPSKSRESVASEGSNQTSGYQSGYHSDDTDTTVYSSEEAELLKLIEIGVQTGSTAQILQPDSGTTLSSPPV

Structure (SMILES)	IC50 [1]	IC50 [2]
Cc1c(C(=O)Nc2ccc(Oc3ccnc(C(=O)NCCN4CCOCC4)c3)c(F)c2)c(=O)n(-c2ccccc2)n1C [4-(4-(1,5-dimethyl-3-oxo-2-phenyl-2,3-dihydro-1H-pyrazole-4-carboxamido)-2-fluorophenoxy)-N-(2-morpholinoethyl)picolinamide (9l)]	860 nM	510 nM
CCN1CCN(C(=O)c2cc(Oc3ccc(NC(=O)c4c(C)n(C)n(-c5ccccc5)c4=O)cc3F)ccn2)CC1 [N-(4-((2-(4-ethylpiperazine-1-carbonyl)pyridin-4-yl)oxy-3-fluorophenyl)-1,5-dimethyl-3-oxo-2-phenyl-2,3-dihydro-1H-pyrazole-4-carboxamide (9j)]	> 1000 nM	970 nM
Cc1c(C(=O)Nc2ccc(Oc3ccnc(C(=O)N4CCC(N5CCCCC5)CC4)c3)c(F)c2)c(=O)n(-c2ccccc2)n1C [N-(4-((2-([1,4'-bipiperidine]-1'-carbonyl)pyridin-4-yl)oxy)-3-fluorophenyl)-1,5-dimethyl-3-oxo-2-phenyl-2,3-dihydro-1H-pyrazole-4-carboxamide (9o)]	780 nM	330 nM

More lines, now with the values ahead:

IC50 [1]	IC50 [2]	Structure (SMILES)
520 nM	170 nM	Cc1c(C(=O)Nc2ccc(Oc3ccnc(-c4nncn4CCCN4CCOCC4)c3)c(F)c2)c(=O)n(-c2ccccc2)n1C [N-(3-fluoro-4-((2-(4-(3-morpholinopropyl)-4H-1,2,4-triazol-3-yl)pyridin-4-yl)oxy)phenyl)-1,5-dimethyl-3-oxo-2-phenyl-2,3-dihydro-1H-pyrazole-4-carboxamide (12c)]
840 nM	250 nM	Cc1c(C(=O)Nc2ccc(Oc3ccnc(C(=O)NCCCN4CCOCC4)c3)c(F)c2)c(=O)n(-c2ccccc2)n1C [4-(4-(1,5-dimethyl-3-oxo-2-phenyl-2,3-dihydro-1H-pyrazole-4-carboxamido)-2-fluorophenoxy)-N-(3-morpholinopropyl) picolinamide (9h)]
190 nM	–	Cc1c(C(=O)Nc2ccc(Oc3ccnc(-c4nncn4CCCN4CCN(C)CC4)c3)c(F)c2)c(=O)n(-c2ccccc2)n1C [N-(3-fluoro-4-((2-(4-(3-(4-methylpiperazin-1-yl)propyl)-4H-1,2,4-triazol-3-yl)pyridin-4-yl)oxy)phenyl)-1,5-dimethyl-3-oxo-2-phenyl-2,3-dihydro-1H-pyrazole-4-carboxamide (12d)]
370 nM	150 nM	Cc1c(C(=O)Nc2ccc(Oc3ccnc(-c4nncn4CCCN(C)C)c3)c(F)c2)c(=O)n(-c2ccccc2)n1C [N-(3-fluoro-4-((2-(4-(3-dimethylaminopropyl)-4H-1,2,4-triazol-3-yl)pyridin-4-yl)oxy)phenyl)-1,5-dimethyl-3-oxo-2-phenyl-2,3-dihydro-1H-pyrazole-4-carboxamide (12b)]
